{"source": "patent US5939458A", "about": "“Reduction of hair growth” (priority 1997, dated 1999)", "key": {"flank organ hair growth": {"tested_on": "flank organ hair growth", "test": "Golden Syrian hamster assay (flank organ hair mass after thirteen topical applications)", "format": "in vivo", "source_text": "Male intact Golden Syrian hamsters are considered acceptable models for human beard hair growth in that they display oval shaped flank organs, one on each side, each about 8 mm. in major diameter, which grow thick black and coarse hair similar to human beard hair. These organs produce hair in response to androgens in the hamster. To evaluate the effectiveness of a composition including an aminoacyl-tRNA synthetase inhibitor, the flank organs of each of a group of hamsters are shaved. To one organ of each animal 10 μl. of vehicle alone once a day is applied, while to the other organ of each animal an equal amount of vehicle containing a aminoacyl-tRNA inhibitor is applied. After thirteen applications (one application per day for five days a week), the flank organs are shaved and the amount of recovered hair (hair mass) from each is weighed. Percent-reduction of hair growth is calculated by subtracting the hair mass (mg) value of the test compound treated side from the hair mass value of the vehicle treated side; the delta value obtained is then divided by the hair mass value of the vehicle treated side, and the resultant number is multiplied by 100.\nThe above-described assay will be referred to herein as the \"Golden Syrian hamster\" assay. Preferred compositions provide a reduction in hair growth of at least about 25%, more preferably at least about 50%, and most preferably at least about 60% when tested in the Golden Syrian hamster assay."}, "[1]": {"tested_on": "Leucine tRNA synthetase (hair follicle extract)", "test": "Hair follicle aminoacyl-tRNA synthetase inhibition, 14C leucine incorporation", "format": "biochemical", "settings": "0.96 μmole/ml inhibitor (leucinamide: similar concentration); 37° C., 60 minutes", "protocol": "Inhibition of hair follicle aminoacyl-tRNA synthetase was determined using a modification of the procedure described by Hampel et. al (Aminoacyl-tRNASynthetases from Cultured CHO Cells (1979) Methods in Enzymology, Vol. LIX, pp 229-234). A reaction mixture containing the following was used for each assay: 50 mM Tris (pH 7.4), 15 mM MgCl2, 0.5 mM EDTA (adjusted to pH 7), 5 mM ATP (adjusted to pH 7, 0.35 mM CTP, 20 μM ^14 C amino acid and tRNA (50 μg/ml). Leucine and serine tRNA synthetase were assayed with a pH 8.6 buffer and a MgCl2 concentration of 8 mM. The reaction mixture is mixed with the hair follicle extract so that the final assay volume is 100 μl. Typically, 90-95 μl of the reaction mixture was mixed with 5-10 μl of the hair follicles extract. The reaction was carried out at 37° C. for 60 minutes. The reaction was terminated by removing the reaction mixture and placing it on a piece of filter paper that had been soaked with 10% trichloroacetic acid. The filter paper was washed 3 times in 10% trichloroacetic acid and 3 times in 5% trichloroacetic acid. The filter paper was dried and the insoluble radioactivity, corresponding to the ^14 C-aminoacyl-tRNA, was counted in a scintillation counter.\nThe incorporation of the ^14 C amino acid varied from 178 dpm/mM to 3,093 dpm/mM in the assays of the amino acids mentioned above. […]"}, "[2]": {"settings": "Table 1, dose 15%, vehicle B, pH 6.5"}, "[3]": {"settings": "Table 2 dose response, dose 1%, pH 5.5, vehicle 90% H2O, 6% dipropylene glycol, 4% ethanol"}, "[4]": {"settings": "Table 2 dose response, dose 5%, pH 6.5, vehicle 90% H2O, 6% dipropylene glycol, 4% ethanol"}, "[5]": {"settings": "Table 2 dose response, dose 7.5%, pH 6.5, vehicle 90% H2O, 6% dipropylene glycol, 4% ethanol"}}}
{"compound": "CSCCC(C)(N)C(=O)O", "note": "(racemic) [α-methyl-DL-methionine]", "values": [{"measurement": "% Inhibition of hair growth", "setting": "flank organ hair growth; [2]", "value": "31 ± 7", "unit": "%"}, {"measurement": "Treated (mg) hair mass", "setting": "flank organ hair growth; [2]", "value": "1.10 ± .15 mg"}]}
{"compound": "CC(C)CC(N)C(N)=O", "note": "(centres unmarked) [lucinamide]", "values": [{"measurement": "inhibition of leucine incorporation", "setting": "[1]", "value": 83, "unit": "%"}]}
{"compound": "N[C@@H](CSC(c1ccccc1)(c1ccccc1)c1ccccc1)C(=O)O", "note": "[S-trityl-L-cysteine]", "values": [{"measurement": "% Inhibition of hair growth", "setting": "flank organ hair growth; [3]", "value": "35 ± 9", "unit": "%"}, {"measurement": "Treated (mg) hair mass", "setting": "flank organ hair growth; [3]", "value": "0.88 ± .10 mg"}, {"measurement": "% Inhibition of hair growth", "setting": "flank organ hair growth; [4]", "value": "56 ± 6", "unit": "%"}, {"measurement": "Treated (mg) hair mass", "setting": "flank organ hair growth; [4]", "value": "0.90 ± .17 mg"}, {"measurement": "% Inhibition of hair growth", "setting": "flank organ hair growth; [5]", "value": "80 ± 6", "unit": "%"}, {"measurement": "Treated (mg) hair mass", "setting": "flank organ hair growth; [5]", "value": "0.35 ± .10 mg"}, {"measurement": "Dose response of hair growth reduction", "setting": "flank organ hair growth; increasing the concentration of the inhibitor in the composition", "value": "increased hair growth reduction"}]}
{"compound": "CC(C)C[C@H](N)CO", "note": "[L-leucinol]", "values": [{"measurement": "inhibition of leucine incorporation", "setting": "[1]", "value": 18, "unit": "%"}]}
